Measured values taken from patent publication US9764002B2, “Dosage regimen for therapeutic method” (MADELEINE PHARMACEUTICALS PTY LTD, priority 2013, dated 2017).
Peptide text beside a SMILES is read from it.

Experiments:
[1] = human, in vivo
Procedure: In our clinical studies, lead patients were dosed at 900 μg/h for 6 hours based on the standard calculation shown earlier to reach a target steady state blood plasma concentration of 10 ng/ml and plasma levels of VSDL measured. Six hours is more than five half-lives for VSDL and, as such, should result in a steady state blood plasma concentration. Having verified the target steady state blood plasma concentration from lead patients, then Cohort 1 “Part 1” received 900 μg/h for 12 hours so as to achieve target steady state blood plasma concentration. However, the target steady state blood plasma concentration was not observed and as such the dosing regime required modification. After significant postulation and modelling of the hypothetical behaviour of VSDL, the multimodal dosage regime was developed. Cohort 1 “Part 2” was introduced using the bimodal dosing regime in an effort to reach a steady state blood plasma concentration of 10 ng/ml. Cohort 1 “Part 2” patients received VSDL at 900 μg/h (ie initial dosage rate) for 5 hours (ie initial period), followed by 550 μg/h for 7 hours (ie maintenance dosage rate).

[2] = human, in vivo; remark: listed apart in the source
clinical = details: human, in vivo
Procedure: A cohort of 10 subjects with stable CHF and undergoing standard of care treatment was treated with the formulation as follows: • i) 2 sentinel subjects were treated with a one stage 6 hour sc infusion of VSDL at 900 μg/h (Subjects 1 and 3) • ii) 5 subjects were treated with a one stage 12 hour sc infusion of VSDL at 900 μg/h (Subjects 102, 103, 104, 105 and 106); and • iii) 3 subjects were treated with a bimodal sc infusion of VSDL at 900 μg/h for 5 hours and then 550 μg/h for 7 hours (Subjects 111, 112 and 114). The dose regimen for this trial was designed using a pharmacokinetic model for VSDL based on prior data. The final model was used to simulate the median and 90% prediction intervals for 1000 patients given VSDL at 900 μg/h for 5 h then 550 μg/h for 7 h. This dose regimen targeted a population value of 10 ng/ml for the period 6-12 h after the start of the infusion. The predictions of the model were compared to observed VSDL concentration data from the three subjects referred to at iii) above. A model where infusion rate (ml/h) and delivered volume (ml) affected KA was an acceptable empirical description of the data. This model reproduced the observed increase in VSDL concentrations at the end of a subcutaneous infusion. The net effect was generally that KA increased with time during subcutaneous infusions. […] The final model had acceptable predictive performance based on the Visual Predictive Checks (allowing for low number of subjects).

In the case of `CC(C)C[C@H](NC(=O)[C@H](C)NC(=O)[C@H](C)NC(=O)CNC(=O)[C@H](C)NC(=O)[C@H](CCC(=O)O)NC(=O)[C@H](CCC(=O)O)NC(=O)[C@H](CC(N)=O)NC(=O)[C@@H]1CCCN1C(=O)[C@H](CCC(=O)O)NC(=O)[C@H](CO)NC(=O)[C@H](CC(C)C)NC(=O)[C@@H](NC(=O)[C@H](CCC(N)=O)NC(=O)[C@@H]1CCCN1C(=O)[C@@H]1CCCN1C(=O)[C@@H](NC(=O)[C@@H](NC(=O)[C@@H](N)CCC(=O)O)C(C)C)C(C)C)C(C)C)C(=O)N[C@@H](CO)C(=O)N1CCC[C@H]1C(=O)N[C@@H](CC(C)C)C(=O)N1CCC[C@H]1C(=O)N[C@@H](CCC(=O)O)C(=O)N[C@H](C(=O)N1CCC[C@H]1C(=O)N1CCC[C@H]1C(=O)N[C@@H](Cc1c[nH]c2ccccc12)C(=O)N[C@H](C(=O)NCC(=O)N[C@@H](CCC(=O)O)C(=O)N[C@H](C(=O)N[C@@H](CO)C(=O)N1CCC[C@H]1C(=O)N[C@@H](C)C(=O)N[C@@H](CCC(N)=O)C(=O)N[C@@H](CCCNC(=N)N)C(=O)O)C(C)C)[C@@H](C)O)C(C)C` [VSDL] (H-EVVPPQVLSEPNEEAGAALSPLPEVPPWTGEVSPAQR-OH; N-terminus and C-terminus assumed), the “plasma concentration reached on continued increase beyond Css” value [1] is reported as 30 ng/mL, the “Css reached when the dose was doubled” value ([1]; sc) is reported as 20 ng/mL and the “steady state blood plasma concentration of VSDL (Css) achieved” value ([1]; sc) is reported as 10 ng/mL. For the same compound, the “symptomatic hypotension from blood pressure drops” value [2] was “none of these resulted in symptomatic hypotension”, the “KA Absorption rate constant, Pop value” (clinical) was 0.265 h⁻¹ and the “KARATE Effect of infusion rate of KA, Pop value” (clinical) was −0.135. The “KAVOL Effect of infusion volume on KA, Pop value” (clinical) was 0.222, the “LGT1 Logit F value, Pop value” (clinical) was −1.05 and the “V Central volume, Pop value” (clinical) was 8.93 L. For the same compound, the “influence of creatinine clearance (CCL) and body mass index (BMI) on VSDL elimination kinetics” value (clinical) was “minor”, the clearance (clinical; CL Clearance, Pop value) was 263 mL/min and the clearance (clinical; CL Maximum Elimination rate, Pop value) was 447 mL/min. The “V2 Multiplier of V for sc bolus, Pop value” (clinical; sc) was 1.596, the “V3 Multiplier of V for sc infusion, Pop value” (clinical; sc) was 3.142 and the bioavailability (clinical; sc, F Bioavailability, Pop value) was 25.9%.
